{"source": "patent US11541065B2", "about": "“Compositions and methods for treating brain injury” (UNM RAINFOREST INNOVATIONS, priority 2018, dated 2023)", "key": {"COX2": {"system": "COX2", "assay": "COX2 protein level in rat neuronal cultures (immunoblot)", "type": "cell-based", "conditions": "for effect on homocysteine-induced increase in COX2 protein level: rat neurons, L-homocysteine 50 μM four hours, with MK801 10 μM, NVP-AAM077 30 nM, Ro 25-6981 1 μM, PD98059 15 μM, SB203580 5 μM or Bengamide B 500 nM", "method": "Equal protein from total cell lysates obtained from rat and mice neuronal cultures were resolved in 7.5% SDS-PAGE, and subjected to immunoblotting procedure as described earlier (Poddar and Paul, 2009, J Neurochem 110:1095-1106). Blots were analyzed with antibodies as described in each experiment. All primary antibodies (anti-COX2, anti-B-tubulin) and secondary-horse radish peroxidase conjugated antibody concentrations were used according to recommendations provided by the manufacturer. Signals from immune complexes in the blots were developed using West Pico supersignal chemiluminescence reagents and then captured on X-ray films. Densitometric analysis of the images was performed using the Image J software.\nRat and mice neuronal cultures were washed with PBS (pH 7.4), containing sodium pyrophosphate and sodium vanadate as phosphatase inhibitors, and harvested in SDS sample buffer (Laemmli, 1970, Nature 227:680-685). Equal protein from total cell lysates, estimated using BCA kit, was resolved by SDS-PAGE (7.5%) followed by western blotting on PVDF membranes. Immunoblot analysis was performed by first blocking with 5% non-fat dry milk for 1 h at room temperature followed by incubation with either COX2 immunoblot analysis (Poddar and Paul, 2009, J Neurochem 110:1095-1106) as described in each experiment. All primary antibodies and horseradish peroxidase conjugated secondary antibodies were used according to manufacturer's recommendations. Signals from immune complexes in the blots were developed using West Pico supersignal chemiluminescence reagents and then captured on X-ray films. Densitometric analysis of the images was performed using the NIH Image J software."}, "cPLA2": {"system": "cPLA2", "assay": "cPLA2 activity in rat neuronal lysates (enzymatic assay)", "type": "cell-based", "conditions": "for effect on homocysteine-mediated increase in cPLA2 activity: rat neurons, L-homocysteine 50 μM four hours, with MK801 10 μM, NVP-AAM077 30 nM, Ro 25-6981 1 μM, PD98059 15 μM or SB203580 5 μM", "method": "Neuron cultures were treated with or without L-homocysteine in the presence or absence of pharmacological inhibitors for the time period specified in each experiment. The medium was collected from each experimental plate and centrifuged at 1000 rpm for five minutes to remove cellular debris. Equal amounts (100 μl) of the supernatant from each sample were used to determine the amount of PGE2 using the PGE2 enzyme immunoassay kit according to the manufacturer's instructions. For measurement of cPLA2 activity, the neuronal cells from the above treated conditions were harvested in ice-cold Tris-buffered saline (pH7.4) containing sodium pyrophosphate as phosphatase inhibitor, sonicated three times with five-second bursts and two minutes on ice between intervals. The lysed cell suspensions were centrifuged at 10,000 rpm for 10 minutes and the supernatant removed. Equal amounts of protein from the supernatant (assessed using BCA protein estimation kit) were estimated for activity of cPLA2 using cPLA2 activity assay kit according to the manufacturer's protocol.\nFor measurement of cPLA2 activity and MCP-1 levels in cell lysates, neuronal lysates were prepared by harvesting neurons in ice-cold Tris-buffered saline (pH 7.4) containing phosphatase inhibitor, sonicated three times in five-second bursts and placed on ice (two minutes) between each burst of sonication. The lysed cell suspensions were centrifuged at 10,000 rpm (10 minutes) and the supernatant was collected in another tube. Equal amounts of protein from the supernatant were processed for cPLA2 activity assay according to the manufacturer's protocol. Equal protein from the lysates were also used to estimate MCP-1 levels using an MCP-1 ELISA kit."}}}
{"smiles": "N[C@@H](CCS)C(=O)O", "note": "[L-homocysteine]", "values": [{"measurement": "COX2 protein levels", "setting": "COX2; cortical neurons, L-homocysteine 50 μM, time course, alone", "value": "progressive increase in COX2 protein levels"}, {"measurement": "cPLA2 activity", "setting": "cPLA2; primary cortical neurons, L-homocysteine 50 μM, 0-6 hours, alone", "value": "significantly increases cPLA2 activity with time"}]}
{"smiles": "C[C@H](NC(c1cccc2[nH]c(=O)c(=O)[nH]c12)P(=O)(O)O)c1ccc(Br)cc1", "note": "(stereo partly drawn) [NVP-AAM077, ({[(1S)-1-(4-bromophenyl)ethyl]amino}-(2,3-dioxo-1,4-dihydroquinoxalin-5-yl)methyl)phosphonic acid]", "values": [{"measurement": "effect on homocysteine-induced increase in COX2 protein level", "setting": "COX2", "value": "blocks homocysteine-induced increase in COX2 protein expression"}, {"measurement": "effect on homocysteine-mediated increase in cPLA2 activity", "setting": "cPLA2", "value": "inhibits homocysteine-mediated increase in cPLA2 activity"}]}
{"smiles": "C[C@@H](CN1CCC(Cc2ccccc2)CC1)[C@@H](O)c1ccc(O)cc1", "note": "[Ro 25-6981]", "values": [{"measurement": "effect on homocysteine-induced increase in COX2 protein level", "setting": "COX2", "value": "fails to ameliorate homocysteine-induced increase in COX2 protein level"}, {"measurement": "effect on homocysteine-mediated increase in cPLA2 activity", "setting": "cPLA2", "value": "fails to attenuate homocysteine-mediated increase in cPLA2 activity"}]}
